{"source": "patent US11648255B2", "about": "“Inhibitors for treatment of hematological malignancies” (Masarykova Univerzita, priority 2020, dated 2023)", "key": {"[1]": {"test_system": "primary CLL cells", "experiment": "competitive migration assay (transwell) after inhibitor treatment", "type": "cell-based, human", "conditions": "GAB1 inhibitors 50 μM, ibrutinib 1 μM, 12 hours, migration towards conditioned media (50%) 6 hours, control set to 1", "quoted_text": "HS5 cells (3.5×10^6) were seeded in T75 cultivation flask (TPP) in 12 ml of Dulbecco's Modified Eagle's Medium media (DMEM, catalog number: D6429, Sigma-Aldrich). The next day was original media discarded, the cells attached to the bottom of the flask were washed once with 10 ml of PBS (catalog number: 5493; Sigma Aldrich). Subsequently, the 25 ml of RPMI-1640 (catalog number: R8758, Sigma-Aldrich) media was added to the attached HS5 cells. After 48 hours was this conditioned media collected, purified from cell-debris by 10 minutes centrifugation at 2000 RCF and subsequently diluted with fresh RPMI-1640 media (catalog number: R8758, Sigma-Aldrich) containing 10% FBS (catalog number: FB-1350; Biosera) and 5% penicillin/streptomycin (catalog number: P4333; Sigma Aldrich) to final concentration 50% conditioned media. This media was immediately used for experiments.\nTo compare the migration, the stained cells (control cells plus one treated variant) were mixed in ratio 1:1 and loaded in transwell inserts (24 well insert, 8 μm pore size; Falcon, Corning) according to manufacturer protocol. […] The ratio of migrated inhibitor-treated cells was calculated by dividing of the percentage of migrated inhibitor-treated cells by percentage of migrated control cells."}, "[2]": {"test_system": "primary CLL cells", "experiment": "Ca2+ flux (Fluo-4AM, flow cytometry) after SDF1 stimulation", "type": "cell-based, human", "conditions": "25 μM inhibitor 6 hours, SDF1 100 μg/ml", "protocol": "Primary CLL cells (5×10^6/ml) were treated with 25 μM GAB1-001 inhibitor (inhGAB1-001) or GAB1-004 inhibitor (inhGAB1-004) for 6 hours (culture conditions are described in the Material and Method section). These inhibitors were obtained from MD Anderson, USA (Lu Chen et al., PLoS Comput Biol. 2015; 11(1): e1004021.). Control cells were treated with an equal volume of DMSO also for 6 hours. After that were these cells incubated in Hanks Balanced Salt Solution (HBSS, catalog number: H6648, Sigma Aldrich) containing […] Fluo-4AM (catalog number: F14201, Thermo Fisher Scientific) for 30 minutes at 37° C. in the dark. The cells were subsequently prepared for analysis according to instructions provided by the manufacturer of Fluo-4AM. The malignant B cells were subsequently analyzed by flow cytometry (BD FACS Verse, BD Biosciences). Samples were acquired for 60 seconds without stimulation. After that the cells were immediately stimulated by SDF1 100 μg/ml (catalog number: 300-28A, Peprotech). […] To calculate the response to SDF1, we established a baseline fluorescence threshold for each sample (by acquiring samples for 60 seconds without any stimulus). We then calculated the peak Fluo-4AM signal and the percentage of cells with fluorescence intensity above baseline Fluo-4AM signal following stimulation addition."}, "[3]": {"test_system": "primary CLL cells", "experiment": "viability by DiOC6/PI staining, flow cytometry", "type": "cell-based", "conditions": "Homo sapiens, CLL cell, 48 hours, DMSO control 55.67", "protocol": "To see the effect of GAB1 inhibitors on malignant B cell viability we treated 5×10^6/ml of primary CLL cells with different doses (10, 25 or 50 μM) of GAB1-001 inhibitor (inhGAB1-001) or GAB1-004 inhibitor (inhGAB1-004) for 48 hours. These inhibitors were obtained from MD Anderson, USA (Lu Chen et al., PLoS Comput Biol. 2015; 11(1): e1004021.). Control cells were treated with an equal volume of DMSO also for 48 hours (culture conditions are described in the Material and Method section). After that, the cells were stained with DiOC6/PI (3,3′-dihexyloxacarbocyanine iodide together with propidium iodide; catalog numbers: D273 and P3566; both were obtained from Thermo Fisher Scientific). Cells were stained and analyzed according to manufacturer protocol. The analysis was performed using BD FACS Verse flow cytometer (BD Biosciences)."}, "[4]": {"test_system": "JEKO (Mantle cell lymphoma)", "experiment": "viability by DiOC6/PI staining, ibrutinib and/or GAB1 inhibitors", "type": "cell-based", "conditions": "ibrutinib 1 μM six days, then GAB1 inhibitors 25 μM 48 hours, DMSO control 76.64", "protocol": "(§1) Cells were cultivated for six days (see Material and Method section) and ibrutinib or DMSO were supplemented each second day. […] The analysis was performed using BD FACS Verse flow cytometer (BD Biosciences)."}, "[5]": {"test_system": "ML2 (Acute myeloid leukemia)", "experiment": "viability by DiOC6/PI staining, ibrutinib and/or GAB1 inhibitors", "type": "cell-based", "conditions": "ibrutinib 1 μM six days, then GAB1 inhibitors 25 μM 48 hours, DMSO control 76.92", "protocol": "as §1"}, "[6]": {"test_system": "OciLy5 (Small lymphocytic leukemia)", "experiment": "viability by DiOC6/PI staining, ibrutinib and/or GAB1 inhibitors", "type": "cell-based", "conditions": "ibrutinib 1 μM six days, then GAB1 inhibitors 25 μM 48 hours, DMSO control 81.47", "protocol": "as §1"}, "[7]": {"test_system": "MEC1 cells", "experiment": "viability by DiOC6/PI staining, ibrutinib and/or GAB1 inhibitors", "type": "cell-based", "conditions": "ibrutinib 1 μM six days, then GAB1 inhibitors 25 μM 48 hours, DMSO control 85.20", "protocol": "Cells were cultivated for six days (see Material and Method section) and ibrutinib or DMSO were supplemented each second day. […] After that were cells harvested and stained for viability using DiOC6/PI (3,3′-dihexyloxacarbocyanine iodide together with propidium iodide (catalog numbers: D273 and P3566; both were obtained from Thermo Fisher Scientific). Cells were stained and analyzed according to manufacturer protocol. The analysis was performed using BD FACS Verse flow cytometer (BD Biosciences)."}, "[8]": {"test_system": "DOHH2 (GC-DLBCL)", "experiment": "viability by DiOC6/PI staining, GAB1 inhibitors", "type": "cell-based", "conditions": "Homo sapiens, DOHH-2, 48 hours, DMSO control 81.84", "protocol": "(§2) In a further experiment, 2.5×10^6/ml of RAMOS (derived from Burkitt's lymphoma) or DOHH2 (derived from diffuse large B cell lymphoma) or GRANTA (derived from […]) or WSU-NHL (derived from follicular lymphoma) cells was treated with treated with two different GAB inhibitors (inhGAB1-001 and inhGAB1-004; provided by MD Anderson, USA (Lu Chen et al., PLoS Comput Biol. 2015; 11(1): e1004021.) at final concentration 25 μM, or with an equal volume of vehicle (DMSO) for 48 hours. After that, cells were harvested and stained for viability using DiOC6/PI (3,3′-dihexyloxacarbocyanine iodide together with propidium iodide; catalog numbers: D273 and P3566; both were obtained from Thermo Fisher Scientific). Cells were stained and analyzed according to manufacturer protocol. The analysis was performed using BD FACS Verse flow cytometer (BD Biosciences)."}, "[9]": {"test_system": "WSU-NHL (Follicular lymphoma)", "experiment": "viability by DiOC6/PI staining, GAB1 inhibitors", "type": "cell-based", "conditions": "Homo sapiens, 48 hours, DMSO control 87.34", "protocol": "as §2"}, "[10]": {"test_system": "GRANTA (Acute lymphoblastic leukemia)", "experiment": "viability by DiOC6/PI staining, GAB1 inhibitors", "type": "cell-based", "conditions": "48 hours, DMSO control 87.24", "protocol": "as §2"}, "[11]": {"test_system": "RAMOS (Burkitt's lymphoma)", "experiment": "viability by DiOC6/PI staining, GAB1 inhibitors", "type": "cell-based", "conditions": "Homo sapiens, 48 hours, DMSO control 95.01", "protocol": "as §2"}, "[12]": {"test_system": "phospho-GAB1 Y307 in primary CLL cells", "experiment": "immunoblot of GAB1 phosphorylation after stimulation with SDF1 or conditioned media, with or without plerixafor", "type": "cell-based, human", "protocol": "Samples were sonicated 2×10 seconds, amplitude 60% (type: UP100H; Hielscher). […] Electrophoresis was conducted using Biorad Miniprotean system (Biorad) according to manufacturer protocol (voltage: 60-110 V, electrophoresis buffer: 25 mM TRIS, 250 mM glycine, […], pH 8.2; all reagents were obtained from Sigma Aldrich; catalog numbers: L3771, T6066, H1758, G8898). Proteins were subsequently transferred to the PVDF membrane (0.45 μm pore size, Millipore) using Biorad Miniprotean system (Biorad) according to manufacturer protocol (blot buffer: 20% methanol, 192 mM glycine, 25 mM TRIS; all reagents were obtained from Sigma Aldrich; catalog numbers: 34860, T6066, H1758, G8898).\nHS5 cells (3.5×10^6) were seeded in T75 cultivation flask (TPP) in 12 ml of Dulbecco's Modified Eagle's Medium media (DMEM, catalog number: D6429, Sigma-Aldrich). The next day was original media discarded, the cells attached to the bottom of the flask were washed once with 10 ml of PBS (catalog number: 5493; Sigma Aldrich). Subsequently, the 25 ml of RPMI-1640 (catalog number: R8758, Sigma-Aldrich) media was added to the attached HS5 cells. […] This media was immediately used for experiments.\nPrimary CLL cells (5×10^6/ml) were cultured as described in Material and Method section. […]"}}}
{"compound": "O=S(=O)(NCc1csc2ccc(Cl)cc12)c1cc(S(=O)(=O)c2ccccc2)cs1", "note": "[inhGAB1-001]", "values": [{"measurement": "Ratio of migrated cells", "setting": "[1]", "result": 0.79}, {"measurement": "Ca2+ flux after treatment with SDF1 (FIG. 2G)", "setting": "[2]", "result": "decreases the Ca^2+ flux"}, {"measurement": "viability at 10 µM", "setting": "[3]", "result": 52.8, "unit": "%"}, {"measurement": "viability at 25 µM", "setting": "[3]", "result": 50.3, "unit": "%"}, {"measurement": "viability at 50 µM", "setting": "[3]", "result": 31, "unit": "%"}, {"measurement": "% of viability", "setting": "[4]", "result": 2.88, "unit": "%"}, {"measurement": "% of viability", "setting": "[5]", "result": 6.86, "unit": "%"}, {"measurement": "% of viability", "setting": "[6]", "result": 53.12, "unit": "%"}, {"measurement": "% of viability", "setting": "[7]", "result": 67.00, "unit": "%"}, {"measurement": "viability at 25 µM", "setting": "[8]", "result": 51.9, "unit": "%"}, {"measurement": "viability at 25 µM", "setting": "[9]", "result": 29.4, "unit": "%"}, {"measurement": "viability at 25 µM", "setting": "[10]", "result": 4.49, "unit": "%"}, {"measurement": "viability at 25 µM", "setting": "[11]", "result": 50.3, "unit": "%"}]}
{"compound": "O=c1[nH]nc(SCc2csc(-c3ccccc3)n2)n1Cc1ccco1", "note": "[inhGAB1-004]", "values": [{"measurement": "Ratio of migrated cells", "setting": "[1]", "result": 0.75}, {"measurement": "Ca2+ flux after treatment with SDF1 (FIG. 2G)", "setting": "[2]", "result": "decreases the Ca^2+ flux"}, {"measurement": "viability at 10 µM", "setting": "[3]", "result": 44.7, "unit": "%"}, {"measurement": "viability at 25 µM", "setting": "[3]", "result": 42.6, "unit": "%"}, {"measurement": "viability at 50 µM", "setting": "[3]", "result": 37.4, "unit": "%"}, {"measurement": "% of viability", "setting": "[4]", "result": 49.20, "unit": "%"}, {"measurement": "% of viability", "setting": "[5]", "result": 28.07, "unit": "%"}, {"measurement": "% of viability", "setting": "[6]", "result": 62.46, "unit": "%"}, {"measurement": "% of viability", "setting": "[7]", "result": 74.52, "unit": "%"}, {"measurement": "viability at 25 µM", "setting": "[8]", "result": 72.3, "unit": "%"}, {"measurement": "viability at 25 µM", "setting": "[9]", "result": 70.2, "unit": "%"}, {"measurement": "viability at 25 µM", "setting": "[10]", "result": 74.1, "unit": "%"}, {"measurement": "viability at 25 µM", "setting": "[11]", "result": 74.6, "unit": "%"}]}
{"compound": "C=CC(=O)N1CCC[C@@H](n2nc(-c3ccc(Oc4ccccc4)cc3)c3c(N)ncnc32)C1", "note": "[ibrutinib]", "values": [{"measurement": "% of viability", "setting": "[4]", "result": 60.14, "unit": "%"}, {"measurement": "% of viability", "setting": "[5]", "result": 68.93, "unit": "%"}, {"measurement": "% of viability", "setting": "[6]", "result": 80.33, "unit": "%"}, {"measurement": "% of viability", "setting": "[7]", "result": 81.66, "unit": "%"}]}
{"compound": "SDF1: Stromal cell-derived factor 1, chemokine ligand used as stimulus", "values": [{"measurement": "GAB1 phosphorylation on stimulation (FIG. 1A)", "setting": "[12]; SDF1 100 ng/ml, 5 minutes", "result": "phosphorylation and thus activation of GAB1 protein"}]}
{"compound": "c1cc(CN2CCCNCCNCCCNCC2)ccc1CN1CCCNCCNCCCNCC1", "note": "[plerixafor]", "values": [{"measurement": "GAB1 phosphorylation on conditioned media in the presence of plerixafor (FIG. 1A)", "setting": "[12]; plerixafor 5 μg/ml 8 hours, 50% conditioned media 5 minutes", "result": "also led to GAB1 phosphorylation"}]}
